Measurements taken from patent US20110100079A1, “METHOD FOR IMPARTING STRESS TOLERANCE TO PLANT” (priority 2007, published 2011).

Experiments:
Format in all cases: in vivo
“Momotaro” tomato = experiment: Example 6 salt stress test (tomato), soil culture; settings: 23° C., underground portion, 100 ppm, 2 weeks; for Fresh weight, relative value (untreated plot = 100), Test 1: EC 1.3 mS/cm; for Fresh weight, relative value (untreated plot = 100), Test 4: pF 1.7, five-leaf stage; for Fresh weight, relative value (untreated plot = 100), Test 3: EC 3 mS/cm
Procedure: (1) A. soil culture (a) Comparative example conditions (stress-free optimum growth conditions) Cultivation temperature: 23° C., EC: 1.0 mS/cm (cultivation with Kureha gardening soil), pF value: 1.7 (capillaries in a saturated state) (b) Example conditions (salt stress conditions) Cultivation temperature: 23° C., EC: 1.3, 2.0, 3.0 mS/cm (cultivation with Kureha gardening soil), pF value: 1.7 (capillaries in a saturated state)
(a) Comparative example conditions (stress-free optimum growth conditions) Cultivation temperature: 23° C., EC: 1.3 mS/cm (Otsuka ½A formulation) (b) Example conditions (salt stress conditions) Cultivation temperature: 23° C., EC: 2.7, 3.9, 4.8 mS/cm (cultivation with Kureha gardening soil) (2) Illuminance: 5000 Lux (fluorescent light), light/dark cycle: 16 hours/8 hours (3) Employed soil: Kureha gardening soil manufactured by Kureha Corporation (fertilizer components: N:P:K=0.4:1.9:0.6 g/kg soil) (4) Employed solution culture medium: Otsuka ½A formulation: a mixed solution of Otsuka House No. 1 (N:P:K=10:8:27) 7.5 g/10 L and Otsuka House No. 2 (N:P:K:Ca=10:0:0:23) 5 g/10 L, total nitrogen: 130 ppm, phosphoric acid: 60 ppm, potassium: 203 ppm) (5) Cultivation period: 2 weeks (6) Plant preparation: A 50-cell tray was filled with Kureha gardening soil manufactured by Kureha Corporation (fertilizer components: N:P:K=0.4:1.9:0.6 g/kg soil), and seeds of a “Momotaro” tomato or tubers of a “Danshaku” potato were sowed, thinly covered with Kureha gardening soil, and sufficiently watered to allow the seeds or the tubers to sprout. When the leaves in the 2-leaf stage or the 5-leaf stage fully unfolded, the soil on the tomato roots or the potato roots was carefully washed away with running water, and a test was performed. (7) Test chemicals: POE (20) sorbitan monolauric acid ester: Reodol TW-L120 (Kao Corporation) POE (20) sorbitan monopalmitic acid ester: Reodol TW-P120 (Kao Corporation) POE (20) sorbitan monostearic acid ester: Reodol TW-S120 (Kao Corporation) POE (20) sorbitan monooleic acid ester: Reodol TW-O120 (Kao Corporation) Sorbitan monooleic acid ester: Emasol 0-10(F) (Kao Corporation) POE (6) sorbitan monooleic acid ester: Reodol TW-O106 (Kao Corporation) Alkyl (number of carbon atoms: 10) polyglucoside: AG-10LK (Kao Corporation) Alkyl (number of carbon atoms: 12 to 14) polyglucoside: AG-124 (Kao Corporation) Sucrose fatty acid ester (number of carbon atoms: C18, HLB: 5): S-570 (Mitsubishi-Kagaku Foods Corporation) Sucrose fatty acid ester (number of carbon atoms: C18, HLB: 9): S-970 (Mitsubishi-Kagaku Foods Corporation) Sucrose fatty acid ester (number of carbon atoms: C18, HLB: 11): S-1170 (Mitsubishi-Kagaku Foods Corporation) Sucrose fatty acid ester (number of carbon atoms: C18, HLB: 15): 5-1570 (Mitsubishi-Kagaku Foods Corporation) Sucrose fatty acid ester (number of carbon atoms: C16, HLB: 15): P-1570 (Mitsubishi-Kagaku Foods Corporation) Sucrose fatty acid ester (number of carbon atoms: C18:1, HLB: 15): O-1570 (Mitsubishi-Kagaku Foods Corporation) (8) Amount of treatment solution applied: 10 ml/specimen for leaf spraying, 250 ml/specimen for hydroponic culture (treatment of underground portion) (9) 50 ml/specimen for soil culture (treatment of underground portion)
The environmental conditions in a climatic chamber were controlled so as to have a temperature of 23° C., an illuminance by a fluorescent light of 5000 Lux, and a daily light-dark cycle of a 16-hour light period and an 8-hour dark period. Tomatoes as prepared above were transplanted in size-3 (9 cm) pots. During the test period, the EC value was controlled by adding a suitable amount of a 10% NaCl solution once a day so as to attain a specific salt stress value. A treatment solution containing a compound of Table 1 in a specific concentration (the remainder was water) was prepared and sprayed onto the leaves or applied to the underground portions. […]

tomato [1] = experiment: Example 7 drying stress test (tomato), soil culture; settings: 23° C., 100 ppm, 2 weeks; for Fresh weight, relative value (untreated plot = 100), Comparison 1: stress-free: tomato soil culture, EC 1, pF 1.7, two-leaf stage; for Fresh weight, relative value (untreated plot = 100), Test 1 / Fresh weight, relative value (untreated plot = 100), Test 4 / Fresh weight, relative value (untreated plot = 100), Test 2 / Fresh weight, relative value (untreated plot = 100), Test 3: tomato soil culture; for Fresh weight, relative value (untreated plot = 100), Test 1: EC 1, pF 2.8, two-leaf stage; for Fresh weight, relative value (untreated plot = 100), Test 4: EC 1, pF 3.5, five-leaf stage; for Fresh weight, relative value (untreated plot = 100), Test 2: EC 1, pF 3.5, two-leaf stage; for Fresh weight, relative value (untreated plot = 100), Test 3: EC 1, pF 4.1, two-leaf stage
Procedure: (§1) The environmental conditions in a climatic chamber were controlled so as to have a temperature of 23° C., an illuminance by a fluorescent light of 5000 Lux, and a daily light-dark cycle of a 16-hour light period and an 8-hour dark period. Tomatoes as prepared above were transplanted in size-3 (9 cm) pots. During the test period, the pF value was controlled by adding a suitable amount of tap water once a day so as to attain a specific drying stress value. A treatment solution containing a compound of Table 1 in a specific concentration (the remainder was water) was prepared and sprayed onto the leaves or applied to the underground portions. […] A comparative example was constructed to reflect the drying stress-free optimum cultivation conditions to investigate the plant energizing ability. […] Moreover, when the products of the present invention and the comparative products were compared, the stress tolerance imparting ability of the products of the present invention was higher in respective drying stress conditions.

tomato [2] = experiment: Example 8 temperature stress test (tomato), soil culture; settings: 100 ppm, 2 weeks; for Fresh weight, relative value (untreated plot = 100), Comparison 1: stress-free: tomato soil culture, cultivation temperature 23, EC 1, pF 1.7, two-leaf stage; for Fresh weight, relative value (untreated plot = 100), Test 1 / Fresh weight, relative value (untreated plot = 100), Test 2 / Fresh weight, relative value (untreated plot = 100), Test 3 / Fresh weight, relative value (untreated plot = 100), Test 4: tomato soil culture; for Fresh weight, relative value (untreated plot = 100), Test 1: cultivation temperature 10, EC 1, pF 1.7, two-leaf stage; for Fresh weight, relative value (untreated plot = 100), Test 2: cultivation temperature 16, EC 1, pF 1.7, two-leaf stage; for Fresh weight, relative value (untreated plot = 100), Test 3: cultivation temperature 29, EC 1, pF 1.7, two-leaf stage; for Fresh weight, relative value (untreated plot = 100), Test 4: cultivation temperature 35, EC 1, pF 1.7, two-leaf stage
Procedure: as §1, with “Other Conditions were as in Example 5. The” for “The”, “have” for “have a temperature of 23° C.,”, “Lux,” for “Lux, and”, “period, and various temperatures.” for “period.”, “pots.” for “pots. During the test period, the pF value was controlled by adding a suitable amount of tap water once a day so as to attain a specific drying stress value.”, “temperature” for “drying”

[3] = soil culture, pF 1.7, two-leaf stage

Row | Compound | Fresh weight, relative value (untreated plot = 100), Test 1 (“Momotaro” tomato; [3]) | Fresh weight, relative value (untreated plot = 100), Test 4 (“Momotaro” tomato; soil culture, EC 2 mS/cm) | Fresh weight, relative value (untreated plot = 100), Test 3 (“Momotaro” tomato; [3]) | Fresh weight, relative value (untreated plot = 100), Comparison 1 (tomato [1]; underground portion) | Fresh weight, relative value (untreated plot = 100), Test 1 (tomato [1]; underground portion) | Fresh weight, relative value (untreated plot = 100), Test 4 (tomato [1]; underground portion) | Fresh weight, relative value (untreated plot = 100), Test 2 (tomato [1]; underground portion) | Fresh weight, relative value (untreated plot = 100), Test 3 (tomato [1]; underground portion) | Fresh weight, relative value (untreated plot = 100), Comparison 1 (tomato [2]; underground portion) | Fresh weight, relative value (untreated plot = 100), Test 1 (tomato [2]; underground portion) | Fresh weight, relative value (untreated plot = 100), Test 2 (tomato [2]; underground portion) | Fresh weight, relative value (untreated plot = 100), Test 3 (tomato [2]; underground portion) | Fresh weight, relative value (untreated plot = 100), Test 4 (tomato [2]; underground portion) | also measured
1 | POE (20) sorbitan monooleic acid ester [Product of present invention 1] | 142 | 156 | 140 | 103 | 134 | 160 | 188 | 145 | 103 | 128 | 131 | 158 | 138 | Fresh weight, relative value (untreated plot = 100), Test 2 (“Momotaro” tomato; soil culture, EC 2 mS/cm, pF 1.7, two-leaf stage): 185; Fresh weight, relative value (untreated plot = 100), Comparison 1 (“Momotaro” tomato; stress-free: soil culture, EC 1 mS/cm, pF 1.7, two-leaf stage): 103
2 | O=C(O)[C@@H]1CCCN1 [Comparative product 2, Proline, reference compound] | 103 | 100 | 100 | 102 | 102 | 100 | 103 | 101 | 102 | 100 | 100 | 101 | 100 | Fresh weight, relative value (untreated plot = 100), Comparison 1 (tomato [1]; leaf): 101; Fresh weight, relative value (untreated plot = 100), Test 1 (tomato [1]; leaf): 102; Fresh weight, relative value (untreated plot = 100), Test 4 (tomato [1]; leaf): 101; Fresh weight, relative value (untreated plot = 100), Test 2 (tomato [1]; leaf): 102; Fresh weight, relative value (untreated plot = 100), Test 3 (tomato [1]; leaf): 101; Fresh weight, relative value (untreated plot = 100), Comparison 1 (tomato [2]; leaf): 101; Fresh weight, relative value (untreated plot = 100), Test 1 (tomato [2]; leaf): 100; Fresh weight, relative value (untreated plot = 100), Test 2 (tomato [2]; leaf): 100; Fresh weight, relative value (untreated plot = 100), Test 3 (tomato [2]; leaf): 101; Fresh weight, relative value (untreated plot = 100), Test 4 (tomato [2]; leaf): 101
